Measured values as given in paper PMC12454493, “Insight on novel sulfamoylphenyl pyrazole derivatives as anticancer carbonic anhydrase inhibitors” (Molecular Diversity, 2024).
Several values for one entry are separate records, joined by “and”; a condition that tells them apart may be missing. Equal values may be shown once.

Assays:
hCA IX = hCA IX (Homo sapiens, UniProt Q16790); assay: CA inhibitory activity, spectrophotometric p-NPA assay; format: biochemical; settings: for IC50: p-NPA substrate, pH 7.5, 25 °C, triplicate, read-out: IC50 (µM) ± SD hCA IX
Protocol: The software used to calculate CA IC50 along with statistical analysis of the results is GraphPad Prism 9.00. Results were estimated by using one-way ANOVA and the Bonferroni’s multiple comparisons posthoc test was performed (P < 0.05) [46]
Carbonic anhydrase inhibitory activity:
The spectrophotometric assay was conducted in HEPES-Tris buffer, NaCl of pH 7.5 (20mM) at 25◦C. Each inhibitory well-consisted of 50 μL of assay buffer solution, 20 μL of hCA enzyme solution (20 ng/μL in Assay Buffer), and 50 μL of test compound in HPLC grade DMSO (maintain 10% of the final concentration). The mixture solution was
Substrate p-nitrophenyl acetate (p-NPA) (0.7mM) was prepared in HPLC grade methanol and the reaction was started by adding 20 μL to a well in a 96-well-plate. The amount of product formed was measured for 30 min continuously at 1 min intervals at 400 nm in a 96-well-plate using xMARK microplate spectrophotometer, Bio-Rad (USA). The activity of the controlled compound was taken as 100%. All experiments were carried out in triplicates of each used concentration, and results are represented as a

hCA XII = hCA XII (Homo sapiens, UniProt O43570); assay: as above; format: biochemical; settings: for IC50: p-NPA substrate, pH 7.5, 25 °C, triplicate, read-out: IC50 (µM) ± SD hCA XII
PC-3 = assay: NCI-60 one-dose SRB screen (Prostate Cancer); format: cell-based; settings: Homo sapiens, single dose 10 µM, 48 h, read-out: Growth inhibition percent (GI %)
DU-145 = assay: NCI-60 one-dose SRB screen (Prostate Cancer); format: cell-based; settings: Homo sapiens, single dose 10 µM, 48 h, read-out: Growth inhibition percent (GI %)
M14 = assay: NCI-60 one-dose SRB screen (Melanoma); format: cell-based; settings: Homo sapiens, single dose 10 µM, 48 h, read-out: Growth inhibition percent (GI %)
UACC-62 = assay: NCI-60 one-dose SRB screen (Melanoma); format: cell-based; settings: Homo sapiens, single dose 10 µM, 48 h, read-out: Growth inhibition percent (GI %)
LOX IMVI = assay: NCI-60 one-dose SRB screen (Melanoma); format: cell-based; settings: Homo sapiens, single dose 10 µM, 48 h, read-out: Growth inhibition percent (GI %)
UACC-257 = assay: NCI-60 one-dose SRB screen (Melanoma); format: cell-based; settings: Homo sapiens, single dose 10 µM, 48 h, read-out: Growth inhibition percent (GI %)
SK-MEL-2 = assay: NCI-60 one-dose SRB screen (Melanoma); format: cell-based; settings: Homo sapiens, single dose 10 µM, 48 h, read-out: Growth inhibition percent (GI %)
SK-MEL-28 = assay: NCI-60 one-dose SRB screen (Melanoma); format: cell-based; settings: Homo sapiens, single dose 10 µM, 48 h, read-out: Growth inhibition percent (GI %)
MDA-MB-435 = assay: NCI-60 one-dose SRB screen (Melanoma); format: cell-based; settings: Homo sapiens, single dose 10 µM, 48 h, read-out: Growth inhibition percent (GI %)
MALME-3M = assay: NCI-60 one-dose SRB screen (Melanoma); format: cell-based; settings: Homo sapiens, single dose 10 µM, 48 h, read-out: Growth inhibition percent (GI %)
SK-MEL-5 = assay: NCI-60 one-dose SRB screen (Melanoma); format: cell-based; settings: Homo sapiens, single dose 10 µM, 48 h, read-out: Growth inhibition percent (GI %)
HCT-15 = assay: NCI-60 one-dose SRB screen (Colon Cancer); format: cell-based; settings: Homo sapiens, single dose 10 µM, 48 h, read-out: Growth inhibition percent (GI %)
SW-620 = assay: NCI-60 one-dose SRB screen (Colon Cancer); format: cell-based; settings: Homo sapiens, single dose 10 µM, 48 h, read-out: Growth inhibition percent (GI %)
HCC-2998 = assay: NCI-60 one-dose SRB screen (Colon Cancer); format: cell-based; settings: Homo sapiens, single dose 10 µM, 48 h, read-out: Growth inhibition percent (GI %)
KM12 = assay: NCI-60 one-dose SRB screen (Colon Cancer); format: cell-based; settings: Homo sapiens, single dose 10 µM, 48 h, read-out: Growth inhibition percent (GI %)
HCT-116 = assay: NCI-60 one-dose SRB screen (Colon Cancer); format: cell-based; settings: Homo sapiens, single dose 10 µM, 48 h, read-out: Growth inhibition percent (GI %)
HT29 = assay: NCI-60 one-dose SRB screen (Colon Cancer); format: cell-based; settings: Homo sapiens, HT-29, single dose 10 µM, 48 h, read-out: Growth inhibition percent (GI %)
COLO 205 = assay: NCI-60 one-dose SRB screen (Colon Cancer); format: cell-based; settings: Homo sapiens, single dose 10 µM, 48 h, read-out: Growth inhibition percent (GI %)
786-0 = assay: NCI-60 one-dose SRB screen (Renal Cancer); format: cell-based; settings: Homo sapiens, single dose 10 µM, 48 h, read-out: Growth inhibition percent (GI %)
CAKI-1 = assay: NCI-60 one-dose SRB screen (Renal Cancer); format: cell-based; settings: Homo sapiens, single dose 10 µM, 48 h, read-out: Growth inhibition percent (GI %)
SN12C = assay: NCI-60 one-dose SRB screen (Renal Cancer); format: cell-based; settings: Homo sapiens, single dose 10 µM, 48 h, read-out: Growth inhibition percent (GI %)
RXF 393 = assay: NCI-60 one-dose SRB screen (Renal Cancer); format: cell-based; settings: Homo sapiens, single dose 10 µM, 48 h, read-out: Growth inhibition percent (GI %)
UO-31 = assay: NCI-60 one-dose SRB screen (Renal Cancer); format: cell-based; settings: Homo sapiens, single dose 10 µM, 48 h, read-out: Growth inhibition percent (GI %)
TK-10 = assay: NCI-60 one-dose SRB screen (Renal Cancer); format: cell-based; settings: Homo sapiens, single dose 10 µM, 48 h, read-out: Growth inhibition percent (GI %)
A498 = assay: NCI-60 one-dose SRB screen (Renal Cancer); format: cell-based; settings: Homo sapiens, single dose 10 µM, 48 h, read-out: Growth inhibition percent (GI %)
ACHN = assay: NCI-60 one-dose SRB screen (Renal Cancer); format: cell-based; settings: Homo sapiens, single dose 10 µM, 48 h, read-out: Growth inhibition percent (GI %)
SR = assay: NCI-60 one-dose SRB screen (Leukemia); format: cell-based; settings: Homo sapiens, single dose 10 µM, 48 h, read-out: Growth inhibition percent (GI %)
MOLT-4 = assay: NCI-60 one-dose SRB screen (Leukemia); format: cell-based; settings: Homo sapiens, single dose 10 µM, 48 h, read-out: Growth inhibition percent (GI %)
RPMI-8226 = assay: NCI-60 one-dose SRB screen (Leukemia); format: cell-based; settings: Homo sapiens, single dose 10 µM, 48 h, read-out: Growth inhibition percent (GI %)
K-562 = assay: NCI-60 one-dose SRB screen (Leukemia); format: cell-based; settings: Homo sapiens, K562, single dose 10 µM, 48 h, read-out: Growth inhibition percent (GI %)
CCRF-CEM = assay: NCI-60 one-dose SRB screen (Leukemia); format: cell-based; settings: Homo sapiens, single dose 10 µM, 48 h, read-out: Growth inhibition percent (GI %)
HL-60(TB) = assay: NCI-60 one-dose SRB screen (Leukemia); format: cell-based; settings: Homo sapiens, single dose 10 µM, 48 h, read-out: Growth inhibition percent (GI %)
NCI/ADR-RES = assay: NCI-60 one-dose SRB screen (Ovarian cancer); format: cell-based; settings: Homo sapiens, single dose 10 µM, 48 h, read-out: Growth inhibition percent (GI %)
IGROV1 = assay: NCI-60 one-dose SRB screen (Ovarian cancer); format: cell-based; settings: Homo sapiens, IGROV-1, single dose 10 µM, 48 h, read-out: Growth inhibition percent (GI %)
OVCAR-3 = assay: NCI-60 one-dose SRB screen (Ovarian cancer); format: cell-based; settings: Homo sapiens, single dose 10 µM, 48 h, read-out: Growth inhibition percent (GI %)
OVCAR-4 = assay: NCI-60 one-dose SRB screen (Ovarian cancer); format: cell-based; settings: Homo sapiens, single dose 10 µM, 48 h, read-out: Growth inhibition percent (GI %)
OVCAR-8 = assay: NCI-60 one-dose SRB screen (Ovarian cancer); format: cell-based; settings: Homo sapiens, single dose 10 µM, 48 h, read-out: Growth inhibition percent (GI %)
T-47D = assay: NCI-60 one-dose SRB screen (Breast Cancer); format: cell-based; settings: Homo sapiens, T47D, single dose 10 µM, 48 h, read-out: Growth inhibition percent (GI %)
MDA-MB-468 = assay: NCI-60 one-dose SRB screen (Breast Cancer); format: cell-based; settings: Homo sapiens, single dose 10 µM, 48 h, read-out: Growth inhibition percent (GI %)
MCF-7 = assay: NCI-60 one-dose SRB screen (Breast Cancer); format: cell-based; settings: Homo sapiens, MCF7, single dose 10 µM, 48 h, read-out: Growth inhibition percent (GI %)
HS 578T = assay: NCI-60 one-dose SRB screen (Breast Cancer); format: cell-based; settings: Homo sapiens, single dose 10 µM, 48 h, read-out: Growth inhibition percent (GI %)
BT-549 = assay: NCI-60 one-dose SRB screen (Breast Cancer); format: cell-based; settings: Homo sapiens, single dose 10 µM, 48 h, read-out: Growth inhibition percent (GI %)
MDA-MB-231/ATCC = assay: NCI-60 one-dose SRB screen (Breast Cancer); format: cell-based; settings: Homo sapiens, single dose 10 µM, 48 h, read-out: Growth inhibition percent (GI %)

Sequence of hCA XII (O43570 25-354): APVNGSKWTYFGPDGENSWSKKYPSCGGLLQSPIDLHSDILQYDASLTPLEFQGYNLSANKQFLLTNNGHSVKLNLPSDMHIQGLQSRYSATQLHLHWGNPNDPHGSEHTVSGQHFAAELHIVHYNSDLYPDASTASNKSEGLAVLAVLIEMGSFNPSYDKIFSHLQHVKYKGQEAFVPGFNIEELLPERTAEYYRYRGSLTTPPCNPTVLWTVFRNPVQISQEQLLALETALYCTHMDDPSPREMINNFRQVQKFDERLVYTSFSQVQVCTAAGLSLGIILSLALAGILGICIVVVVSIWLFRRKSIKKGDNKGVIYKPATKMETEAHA

## COc1ccc(-c2nn(-c3ccc(S(N)(=O)=O)cc3)cc2C(=O)OCC(=O)Nc2nnc(S(N)(=O)=O)s2)cc1 [Compound 6c, 2-Oxo-2-[(5-sulfamoyl-1,3,4-thiadiazol-2-yl)amino] ethyl 3-(4-methoxyphenyl)-1-(4-sulfamoylphenyl)-1H-pyrazole-4-carboxylate]
hCA IX
  Ki: 73 nM
  IC50: 0.07 µM and 0.073 µM
hCA XII
  Ki: 95 nM
  IC50: 0.09 µM and 0.095 µM
PC-3
  inhibition at 10 µM: < 5%
DU-145
  inhibition at 10 µM: < 5%
M14
  inhibition at 10 µM: < 5%
UACC-62
  inhibition at 10 µM: 9.09%
LOX IMVI
  inhibition at 10 µM: 8.56%
UACC-257
  inhibition at 10 µM: < 5%
SK-MEL-2
  inhibition at 10 µM: < 5%
SK-MEL-28
  inhibition at 10 µM: < 5%
MDA-MB-435
  inhibition at 10 µM: < 5%
MALME-3M
  inhibition at 10 µM: 5.67%
SK-MEL-5
  inhibition at 10 µM: < 5%
HCT-15
  inhibition at 10 µM: < 5%
SW-620
  inhibition at 10 µM: < 5%
HCC-2998
  inhibition at 10 µM: < 5%
KM12
  inhibition at 10 µM: < 5%
HCT-116
  inhibition at 10 µM: < 5%
HT29
  inhibition at 10 µM: < 5%
COLO 205
  inhibition at 10 µM: < 5%
786-0
  inhibition at 10 µM: < 5%
CAKI-1
  inhibition at 10 µM: 21.5%
SN12C
  inhibition at 10 µM: < 5%
RXF 393
  inhibition at 10 µM: < 5%
UO-31
  inhibition at 10 µM: 14.9%
TK-10
  inhibition at 10 µM: < 5%
A498
  inhibition at 10 µM: 7.75%
ACHN
  inhibition at 10 µM: < 5%
SR
  inhibition at 10 µM: < 5%
MOLT-4
  inhibition at 10 µM: < 5%
RPMI-8226
  inhibition at 10 µM: < 5%
K-562
  inhibition at 10 µM: < 5%
CCRF-CEM
  inhibition at 10 µM: < 5%
HL-60(TB)
  inhibition at 10 µM: < 5%
NCI/ADR-RES
  inhibition at 10 µM: < 5%
IGROV1
  inhibition at 10 µM: < 5%
OVCAR-3
  inhibition at 10 µM: < 5%
OVCAR-4
  inhibition at 10 µM: < 5%
OVCAR-8
  inhibition at 10 µM: < 5%
T-47D
  inhibition at 10 µM: < 5%
MDA-MB-468
  inhibition at 10 µM: 7.76%
MCF-7
  inhibition at 10 µM: 15.8%
HS 578T
  inhibition at 10 µM: 12.8%
BT-549
  inhibition at 10 µM: < 5%
MDA-MB-231/ATCC
  inhibition at 10 µM: < 5%

## Cc1ccc(-c2nn(-c3ccc(S(N)(=O)=O)cc3)cc2C(=O)NNC(N)=S)cc1 [Compound 9b, 2-[1-(4-Sulfamoylphenyl)-3-(p-tolyl)-1H-pyrazole-4-carbonyl] hydrazine-1-carbothioamide]
hCA IX
  IC50: 0.33 µM and 0.339 µM
hCA XII
  IC50: 0.33 µM and 0.335 µM
PC-3
  inhibition at 10 µM: < 5%
DU-145
  inhibition at 10 µM: < 5%
M14
  inhibition at 10 µM: < 5%
UACC-62
  inhibition at 10 µM: 5.9%
LOX IMVI
  inhibition at 10 µM: < 5%
UACC-257
  inhibition at 10 µM: < 5%
SK-MEL-2
  inhibition at 10 µM: < 5%
SK-MEL-28
  inhibition at 10 µM: < 5%
MDA-MB-435
  inhibition at 10 µM: < 5%
MALME-3M
  inhibition at 10 µM: < 5%
SK-MEL-5
  inhibition at 10 µM: < 5%
HCT-15
  inhibition at 10 µM: < 5%
SW-620
  inhibition at 10 µM: < 5%
HCC-2998
  inhibition at 10 µM: < 5%
KM12
  inhibition at 10 µM: < 5%
HCT-116
  inhibition at 10 µM: < 5%
HT29
  inhibition at 10 µM: < 5%
COLO 205
  inhibition at 10 µM: < 5%
786-0
  inhibition at 10 µM: < 5%
CAKI-1
  inhibition at 10 µM: 7.05%
SN12C
  inhibition at 10 µM: < 5%
RXF 393
  inhibition at 10 µM: < 5%
UO-31
  inhibition at 10 µM: < 5%
TK-10
  inhibition at 10 µM: < 5%
A498
  inhibition at 10 µM: < 5%
ACHN
  inhibition at 10 µM: < 5%
SR
  inhibition at 10 µM: < 5%
MOLT-4
  inhibition at 10 µM: < 5%
RPMI-8226
  inhibition at 10 µM: < 5%
K-562
  inhibition at 10 µM: < 5%
CCRF-CEM
  inhibition at 10 µM: 19.6%
HL-60(TB)
  inhibition at 10 µM: < 5%
NCI/ADR-RES
  inhibition at 10 µM: < 5%
IGROV1
  inhibition at 10 µM: < 5%
OVCAR-3
  inhibition at 10 µM: < 5%
OVCAR-4
  inhibition at 10 µM: < 5%
OVCAR-8
  inhibition at 10 µM: < 5%
T-47D
  inhibition at 10 µM: < 5%
MDA-MB-468
  inhibition at 10 µM: < 5%
MCF-7
  inhibition at 10 µM: < 5%
HS 578T
  inhibition at 10 µM: < 5%
BT-549
  inhibition at 10 µM: < 5%
MDA-MB-231/ATCC
  inhibition at 10 µM: < 5%
